In patent US10336762B2 (priority 2017, dated 2019):
Like-named read-outs stand apart in the source and are kept apart here.

Legend:
[1] = system: TNFα; assay: cells; format: cell-based, human; settings: Homo sapiens, Monocyte, LPS-stimulated human monocytes, read-out: EC50 TNF
[2] = target: IRAK4 enzyme (Homo sapiens (Human), UniProt Q9NWZ3); assay: biochemical; format: biochemical; settings: IRAK4 enzyme, 500 μM ATP
Sequence of IRAK4 enzyme (Q9NWZ3 whole entry): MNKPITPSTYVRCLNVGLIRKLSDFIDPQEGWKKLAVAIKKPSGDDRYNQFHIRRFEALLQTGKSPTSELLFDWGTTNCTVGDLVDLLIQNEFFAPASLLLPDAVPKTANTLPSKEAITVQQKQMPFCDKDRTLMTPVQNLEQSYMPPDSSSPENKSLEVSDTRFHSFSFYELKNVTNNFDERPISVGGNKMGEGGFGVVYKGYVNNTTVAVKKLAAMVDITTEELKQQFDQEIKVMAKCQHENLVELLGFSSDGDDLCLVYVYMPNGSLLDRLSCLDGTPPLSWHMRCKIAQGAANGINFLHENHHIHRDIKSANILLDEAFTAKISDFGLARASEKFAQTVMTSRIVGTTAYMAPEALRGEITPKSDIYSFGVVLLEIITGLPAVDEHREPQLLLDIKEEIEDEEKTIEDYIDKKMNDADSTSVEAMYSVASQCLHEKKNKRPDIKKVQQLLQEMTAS

Compound	EC50 ([1]; TNFα by TR-FRET)	IC50 ([2]; TR-FRET)	EC50 ([1]; TNFα content)	IC50 ([2]; TR-FRET (HTRF))
CC1(C(=O)NC[C@H]2C[C@H](Nc3cc(-c4ccc5cc(C#N)cnn45)ncc3C(=O)NC[C@@H](F)C(C)(C)O)C2)COC1 [Example 873, 6-(3-cyanopyrrolo[1,2-b]pyridazin-7-yl)-N-((R)-2-fluoro-3-hydroxy-3-methylbutyl)-4-(((1r,3R)-3-((3-methyloxetane-3-carboxamido)methyl)cyclobutyl)amino) nicotinamide]	102 nM	< 1 nM	–	–
CC(C)(O)[C@H](F)CNC(=O)c1cnc(-c2ccc3cc(C#N)cnn23)cc1N[C@H]1C[C@H](CNC(=O)CC(F)F)C1 [Example 656, 6-(3-cyanopyrrolo[1,2-b]pyridazin-7-yl)-4-(((1r,3R)-3-((3,3-difluoropropanamido)methyl)cyclobutyl)amino)-N-((R)-2-fluoro-3-hydroxy-3-methylbutyl) nicotinamide]	–	–	40 nM	< 1 nM
N#CCNC(=O)c1cnc(-c2ccc3cc(C#N)cnn23)cc1NC12CCC(O)(CC1)CC2 [Example 348, N-(cyanomethyl)-6-(3-cyanopyrrolo[1,2-b]pyridazin-7-yl)-4-((4-hydroxybicyclo[2.2.2]octan-1-yl)amino) nicotinamide]	–	< 1 nM	19 nM	–
CC(C)(O)[C@H](F)CNC(=O)c1cnc(-c2ccc3cc(C#N)cnn23)cc1N[C@H]1CC[C@H](O)C1 [Example 522, 6-(3-cyanopyrrolo[1,2-b]pyridazin-7-yl)-N-((R)-2-fluoro-3-hydroxy-3-methylbutyl)-4-(((1S,3S)-3-hydroxycyclopentyl)amino) nicotinamide]	–	–	23 nM	< 1 nM
CC(C)(O)[C@H](F)CNC(=O)c1cnc(-c2ccc3cc(C#N)cnn23)cc1NC12CCC(C(=O)NC3CC3)(CC1)CC2 [Example 406, (R)-6-(3-cyanopyrrolo[1,2-b]pyridazin-7-yl)-4-((4-(cyclopropylcarbamoyl)bicyclo[2.2.2]octan-1-yl)amino)-N-(2-fluoro-3-hydroxy-3-methylbutyl) nicotinamide]	–	–	33 nM	1 nM
[2H]C([2H])([2H])NC(=O)c1cnc(-c2ccc3cc(C#N)cnn23)cc1NC12CC(NC(C)=O)(C1)C2 [Example 497, 4-((3-acetamidobicyclo[1.1.1]pentan-1-yl)amino)-6-(3-cyanopyrrolo[1,2-b]pyridazin-7-yl)-N-(methyl-d3)nicotinamide]	–	–	55 nM	1 nM
CC(C)(O)[C@H](F)CNC(=O)c1cnc(-c2ccc3cc(C#N)cnn23)cc1NC[C@@H]1CCN1CC(F)(F)F [Example 891, 6-(3-cyanopyrrolo[1,2-b]pyridazin-7-yl)-N-((R)-2-fluoro-3-hydroxy-3-methylbutyl)-4-((((S)-1-(2,2,2-trifluoroethyl)azetidin-2-yl)methyl)amino)nicotinamide]	249 nM	4 nM	–	–
N#Cc1cnn2c(-c3cc(NC45CCC(O)(CC4)CC5)c(C(=O)NCC(=O)c4ccccc4)cn3)ccc2c1 [Example 811, 6-(3-cyanopyrrolo[1,2-b]pyridazin-7-yl)-4-((4-hydroxybicyclo[2.2.2]octan-1-yl)amino)-N-(2-oxo-2-phenylethyl) nicotinamide]	32 nM	< 1 nM	–	–
COc1cc(Nc2cc(-c3ccc4cc(C#N)cnn34)ncc2C(=O)NC[C@@H](F)C(C)(C)O)ccc1C#N [Example 611, (R)-4-((4-cyano-3-methoxy-phenyl)amino)-6-(3-cyanopyrrolo[1,2-b]pyridazin-7-yl)-N-(2-fluoro-3-hydroxy-3-methylbutyl)nicotinamide]	–	–	> 10000 nM	15 nM
CC(C)(O)[C@H](F)CNC(=O)c1cnc(-c2ccc3cc(C#N)cnn23)cc1N[C@@H]1CCOC[C@@H]1F [Example 57, 6-(3-cyanopyrrolo[1,2-b]pyridazin-7-yl)-N-((R)-2-fluoro-3-hydroxy-3-methylbutyl)-4-(((3R,4R)-3-fluorotetrahydro-2H-pyran-4-yl)amino)nicotinamide]	–	< 1 nM	46 nM	–
